The values below come from patent US20080188564A1, “Insecticidal and Nematicidal Compositions and Methods of Use” (priority 2004, published 2008).

One series has as its system C. elegans. In words: Toxicity of DIDS on C. elegans (96 well plate). It is filed as in vivo, Caenorhabditis elegans. The protocol:
(§1) We determined the toxicity of DIDS to infective juveniles of M. incognita and H. bacteriophora. Infective juveniles were assayed because they represent the only free-living life stage for both nematode species; adults live within their respective hosts and are not amenable to this type of test. Further, the infective juvenile of M. incognita would likely be the target of a nematicide based upon this material. The tests were conducted in either 35 mm Petri dishes or 96 well plates, holding the test material dissolved in DMSO and dispersed into tap water. Each dish was considered a replicate and contained 10-30 nematodes of either species. Each well of the 96-well plates had one nematode.
(§2) To further characterize the nematode-inhibiting effect of a stilbene compound (DIDS), experiments were performed as described above, using a 96 well plate and 10-30 nematodes per well, and using the plant parasite M. incognita and the free-living C. elegans. The results are depicted in Tables 1 and 2.

The next series deals with M. incognita. In words: Toxicity of DIDS on M. incognita infective juveniles. Format: in vivo, Meloidogyne incognita. How it is done: Meloidogyne incognita cultures were maintained on potted tomatoes (c.v. Rutgers) in a greenhouse. Infective juvenile nematodes for analysis were extracted as eggs from infected tomato roots by shaking the roots in 1% bleach for 2 minutes. Eggs were captured in a 500-mesh sieve, rinsed in water and placed in Baerman funnels. When the eggs hatched, the juveniles moved downward in the funnels, and hatched infective juveniles were collected after 48 hours.
as §1
DIDS-H.b.=DIDS-exposed H. bacteriophora; DIDS-M.i.=DIDS-exposed Meloidogyne incognita. DIDS was dissolved in DMSO, and DMSO-M.i.=DMSO-exposed Meloidogyne incognita. Average percentage mortality for each treatment group was calculated from 5 replicates containing 10 nematodes each. Bars are means±SEM.
as §2

A further series has as its system H. megidis. As to conditions: concentrations up to 200 ug/ml; cited from earlier work.
The next series has as its system Caenorhabditis elegans. The note with it: at 100 ug/ml; cited from earlier work.
The next series relates to Meloidogyne incognita. As to conditions: at 100 ug/ml; cited from earlier work.
The test system of series [1] is voltage-gated chloride channels. The note with it: Torpedo membranes vs rat brain membranes; cited from earlier work.

As for `O=S(=O)(O)c1cc(N=C=S)ccc1/C=C/c1ccc(N=C=S)cc1S(=O)(=O)O` [DIDS, trans-4,4′-diisothiocyanatostilbene-2,2′-disulfonic acid], the LC50 – broadly, the concentration lethal to half of the exposed cells or organisms – in the series on C. elegans (1-day (24 hr)) was found to be 196.13 ppm; in the series on C. elegans (2-day (48 hr)) it was 83.70 ppm; in the series on C. elegans (3-day (72 hr)), 31.53 ppm; in the series with C. elegans (5-day (120 hr)), 15.69 ppm; in the series on C. elegans (7-day (168 hr)) it was 10.67 ppm; in the series on M. incognita (1-day (24 hr)) it was 160.03 ppm. In addition, the 50% lethal concentration (LC50) in the series on M. incognita (2-day (48 hr)) was 97.91 ppm; in the series with M. incognita (3-day (72 hr)), 37.84 ppm; with M. incognita (5-day (120 hr)), 17.07 ppm; in the series with M. incognita (7-day (168 hr)), 11.58 ppm. The Slope in the series on C. elegans (1-day (24 hr)) was determined as 1.43 ± 0.35; with C. elegans (2-day (48 hr)), 1.45 ± 0.29; in the series with C. elegans (3-day (72 hr)), 1.87 ± 0.28; in the series on C. elegans (5-day (120 hr)), 2.86 ± 0.36; with C. elegans (7-day (168 hr)), 4.57 ± 0.71; in the series on M. incognita (1-day (24 hr)), 1.77 ± 0.50. Moreover, the Slope with M. incognita (2-day (48 hr)) amounted to 1.52 ± 0.30; in the series with M. incognita (3-day (72 hr)), 1.83 ± 0.30; in the series with M. incognita (5-day (120 hr)), 2.75 ± 0.36; with M. incognita (7-day (168 hr)), 4.04 ± 0.59. The time until toxic in the series with C. elegans (DIDS at 10 ppm) and with M. incognita (DIDS at 10 ppm) was 2 days in each case. Besides, the time to paralysis in the series with C. elegans (free-living nematode) and in the series with M. incognita (plant parasite nematode) was 2 days throughout. Further, the “toxicity (mortality) to nematodes” value in the series on M. incognita (24 hr, 100 ug/ml (200 uM), in DMSO/tap water) is given as “paralytic/lethal”.
Turning to `CC(C)c1c(O)cc(C=Cc2ccccc2)cc1O` [DST, 3,5-dihydroxy-4-isopropylstilbene], in the series with H. megidis, the “sensitivity to DST” value is on record as “completely insensitive”. The 24 hr lethality with Caenorhabditis elegans and with Meloidogyne incognita was 100% throughout.
With `Cl[C@H]1[C@H](Cl)[C@@H](Cl)[C@@H](Cl)[C@H](Cl)[C@H]1Cl` [lindane], the “potency as inhibitor of [35S]TBPS binding, Torpedo membranes relative to rat brain” value in series [1] is given as “about 4 fold”.
